A word on the MIC: it is the smallest concentration in the dilution series that meets the test's criterion for growth inhibition.

Converted amounts (≈) assume the structure as drawn. The source made the active and inactive calls.

The test system of assay [1] is Bacillus subtilis. In words: Antibacterial activity against Bacillus subtilis NCTC 10400 assessed as growth inhibition after 24 hr. The format is functional. Particulars: NCTC 10400, 24 h.
The subject of assay [2] is Candida albicans. Kind of assay: Antifungal activity against Candida albicans NCPF 3179 assessed as growth inhibition after 3 days. In kind it is functional. Particulars: NCPF 3179, 72 h.
The test system of assay [3] is Escherichia coli. Kind of assay: Antibacterial activity against Escherichia coli NCTC 12923 assessed as growth inhibition after 24 hr. In kind it is functional. Particulars: NCTC 12923, 24 h.
Assay [4] relates to Radical scavenging activity. Kind of assay: Antioxidant activity assessed as DPPH radical scavenging activity at 1 mg/mL after 15 min UV-vis spectrophotometric analysis relative to control. In kind it is functional. Background: The DPPH test is a chemical assay of radical scavenging.
Assay [5] has as its system Candida albicans. In words: Antifungal activity against Candida albicans NCPF 3179 assessed as growth inhibition at 50 mg/mL after 3 days. The format is functional. The note with it: NCPF 3179, 72 h, read-out: IZ.
The test system of assay [6] is Escherichia coli. Kind of assay: Antibacterial activity against Escherichia coli NCTC 12923 assessed as growth inhibition at 50 mg/mL after 24 hr. The format is functional. The note with it: NCTC 12923, 24 h, read-out: IZ.
The test system of assay [7] is Bacillus subtilis. In words: Antibacterial activity against Bacillus subtilis NCTC 10400 assessed as growth inhibition at 50 mg/mL after 24 hr. The format is functional. Particulars: NCTC 10400, 24 h, read-out: IZ.
Assay [8] concerns Staphylococcus aureus. Kind of assay: Antibacterial activity against Staphylococcus aureus NCTC 10788 assessed as growth inhibition at 50 mg/mL after 24 hr. In kind it is functional. The note with it: NCTC 10788, 24 h, read-out: IZ.
Assay [9] deals with Staphylococcus aureus. In words: Antibacterial activity against Staphylococcus aureus NCTC 10788 assessed as growth inhibition after 24 hr. Particulars: NCTC 10788, 24 h. The format is functional.
Assay [10] has as its system Escherichia coli. In words: Antibacterial activity against Escherichia coli NCTC 12923 assessed as growth inhibition at 1 to 50 mg/mL after 24 hr. The format is functional, organism-based.

Consider `O=C(c1ccc(Br)cc1)c1cc2cc(Br)ccc2o1`, for which the minimum inhibitory concentration (MIC) in the assay on Bacillus subtilis [1], with Candida albicans [2], in the assay on Escherichia coli [3] and in the assay on Staphylococcus aureus [9] was 50 µg/mL (≈ 132 µM) in each case. Moreover, the Activity in assay [4] worked out at 11.7%. The zone of inhibition at 50000 µg/mL in the assay with Candida albicans [5] came to 15 mm; in the assay on Escherichia coli [6], 17 mm; with Bacillus subtilis [7] it was 24 mm; with Staphylococcus aureus [8], 23 mm.

`C=Cc1ccc(-c2ccc(C(=O)c3cc4cc(-c5ccc(C=C)cc5)ccc4o3)cc2)cc1`: the MIC in the assay on Bacillus subtilis [1] came out at 50 µg/mL (≈ 117 µM); in the assay with Candida albicans [2], 500 µg/mL (≈ 1170 µM); in the assay with Staphylococcus aureus [9], 250 µg/mL (≈ 586 µM). The “growth inhibition (GI)” value in the assay with Escherichia coli [10] was “inactive”. Also, the Activity in [4] worked out at 33.7%. Besides, the zone of inhibition at 50000 µg/mL turned out to be 6 mm in the assay with Candida albicans [5], 0 mm in the assay with Escherichia coli [6], 16 mm with Bacillus subtilis [7] and 10 mm in the assay on Staphylococcus aureus [8].

Consider `CS(=O)(=O)c1cccc(-c2ccc(C(=O)c3cc4cc(-c5cccc(S(C)(=O)=O)c5)ccc4o3)cc2)c1`, for which the MIC in the assay on Bacillus subtilis [1] and with Candida albicans [2] was 500 µg/mL (≈ 942 µM) each time. Moreover, the “growth inhibition (GI)” value in the assay on Escherichia coli [10] was “inactive”. The Activity in assay [4] worked out at 12.3%. For the same compound, the zone of inhibition at 50000 µg/mL with Candida albicans [5] was 6 mm; in the assay on Escherichia coli [6], 0 mm; in the assay with Bacillus subtilis [7] it was 16 mm; with Staphylococcus aureus [8], 0 mm.

Turning to `O=C(c1ccc(-c2ccccc2)cc1)c1cc2cc(-c3ccccc3)ccc2o1`, the figures for the MIC in the assay with Bacillus subtilis [1], with Candida albicans [2] and in the assay with Staphylococcus aureus [9] were 10 µg/mL (≈ 26.7 µM), 10 µg/mL (≈ 26.7 µM) and 1 µg/mL (≈ 2.67 µM), respectively. Moreover, in the assay with Escherichia coli [10], the “growth inhibition (GI)” value is “inactive”. For the same compound, in assay [4], the Activity came to 7.3%. Moreover, the zone of inhibition at 50000 µg/mL in the assay with Candida albicans [5] was determined as 10 mm; in the assay with Escherichia coli [6], 0 mm; in the assay on Bacillus subtilis [7], 22 mm; with Staphylococcus aureus [8], 15 mm.

These data come from ChEMBL document CHEMBL3045324, “5-phenyl-1-benzofuran-2-yl derivatives: synthesis, antimicrobial, and antioxidant activity” (2013).
